“And” between values parts separate entries of the source, which are not always exact repeats. Equal entries are not always repeated. Inconclusive results and toxic doses are left out. How the source made its calls: active means survival T/C of 150% or more; inactive means T/C below 125% in these data. Square brackets hold non-standard residues; d marks the D form. Peptide text beside a SMILES is read from it. * marks the point of attachment. ξ: configuration not given here. ξF = NC(Cc1ccccc1)C(=O)O; ClAc = O=C(CCl)*
System: BDF1 mice, B16 melanoma ip, median survival T/C
Assay: NCI In Vivo Anticancer Drug Screen. Data for tumor model B16 Melanoma (intraperitoneal) in B6D2F1 (BDF1) mice
Settings: endpoint: median survival time, higher = longer survival
Procedure, shortened: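 The ratio T/C compares compound-treated mice with vehicle-treated controls, using survival or tumor size as the endpoint in a transplantable tumor model.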

[1] = dose: 12.5 mg/kg/injection, schedule: Q01DX009 (ip), vehicle: Klucel (hydroxypropylcellulose) (HPC)
[2] = dose: 25.0 mg/kg/injection, schedule: Q01DX009 (ip), vehicle: Klucel (hydroxypropylcellulose) (HPC)
[3] = dose: 50.0 mg/kg/injection, schedule: Q01DX009 (ip), vehicle: Klucel (hydroxypropylcellulose) (HPC)
[4] = dose: 100.0 mg/kg/injection, schedule: Q01DX009 (ip), vehicle: Klucel (hydroxypropylcellulose) (HPC)
[5] = dose: 6.25 mg/kg/injection, schedule: Q01DX009 (ip), vehicle: saline with Tween-80
[6] = dose: 12.5 mg/kg/injection, schedule: Q01DX009 (ip), vehicle: saline with Tween-80
[7] = dose: 50.0 mg/kg/injection, schedule: Q01DX009 (ip), vehicle: saline with Tween-80
[8] = dose: 100.0 mg/kg/injection, schedule: Q01DX009 (ip), vehicle: saline with Tween-80
[9] = dose: 0.78 mg/kg/injection, schedule: Q01DX009 (ip), vehicle: saline
[10] = dose: 1.56 mg/kg/injection, schedule: Q01DX009 (ip), vehicle: saline
[11] = dose: 3.12 mg/kg/injection, schedule: Q01DX009 (ip), vehicle: saline
[12] = dose: 6.25 mg/kg/injection, schedule: Q01DX009 (ip), vehicle: saline
[13] = dose: 12.5 mg/kg/injection, schedule: Q01DX009 (ip), vehicle: saline
[14] = dose: 200.0 mg/kg/injection, schedule: Q01DX009 (ip), vehicle: saline with Tween-80
[15] = dose: 25.0 mg/kg/injection, schedule: Q01DX009 (ip), vehicle: saline
[16] = dose: 200.0 mg/kg/injection, schedule: Q01DX009 (ip), vehicle: Klucel (hydroxypropylcellulose) (HPC)
[17] = dose: 400.0 mg/kg/injection, schedule: Q01DX009 (ip), vehicle: Klucel (hydroxypropylcellulose) (HPC)

Measured: T/C

COc1ccc(Cl)[n+]([O-])n1
inactive: dose: 3.13 mg/kg/injection, schedule: Q01DX009 (ip), vehicle: Klucel (hydroxypropylcellulose) (HPC) 92 % of control | dose: 6.25 mg/kg/injection, schedule: Q01DX009 (ip), vehicle: Klucel (hydroxypropylcellulose) (HPC) 95 % of control | [1] 98 % of control | [2] 96 % of control | [3] 98 % of control | [4] 91 % of control

CCOc1ccc2c(ccc(/C=C\c3cc(C)c4cccnc4c3O)[n+]2C)c1
inactive: [5] 102 % of control | [6] 101 % of control

ClCCCCCCCCCCc1ccccc1
inactive: [1] 90 % of control | [2] 90 % of control | [3] 89 % of control

CCC/C=C/C=C\C(=O)O[C@@H]1[C@@H](C)[C@]2(O)[C@@H]3C=C(C)C(=O)[C@H]3CC(COC(C)=O)=C[C@H]2[C@@H]2C(C)(C)[C@]12OC(C)=O
inactive: dose: 0.75 mg/kg/injection, schedule: Q01DX009 (ip), vehicle: saline + alcohol 107 % of control | dose: 1.5 mg/kg/injection, schedule: Q01DX009 (ip), vehicle: saline + alcohol 105 % of control | dose: 3.0 mg/kg/injection, schedule: Q01DX009 (ip), vehicle: saline + alcohol 113 % of control | dose: 6.0 mg/kg/injection, schedule: Q01DX009 (ip), vehicle: saline + alcohol 113 % of control

O=C(O)CC1(CC(=O)O)CCCCC1
inactive: [7] 100 % of control | [8] 98 % of control

CC(CN(C)C)CN1c2ccccc2Sc2ccc(C(F)(F)F)cc21 (stereo unspecified)
inactive: [9] 109 % of control | [10] 105 % of control | [11] 116 % of control | [12] 103 % of control | [13] 103 % of control

CC(=O)Oc1cc2c3c(c1)CCCN3CCC2
inactive: dose: 3.13 mg/kg/injection, schedule: Q01DX009 (ip), vehicle: saline with Tween-80 90 % of control | [5] 90 % of control | dose: 15.0 micrograms/kg/injection, schedule: Q01DX009 (ip), vehicle: saline 104 % of control | dose: 30.0 micrograms/kg/injection, schedule: Q01DX009 (ip), vehicle: saline 97 % of control | dose: 60.0 micrograms/kg/injection, schedule: Q01DX009 (ip), vehicle: saline 93 % of control | dose: 250.0 micrograms/kg/injection, schedule: Q01DX009 (ip), vehicle: saline with Tween-80 86 % of control | dose: 500.0 micrograms/kg/injection, schedule: Q01DX009 (ip), vehicle: saline with Tween-80 86 % of control

C=C1CCN(c2ccc(Br)cc2)C1=O
inactive: dose: 4.0 mg/kg/injection, schedule: Q01DX009 (ip), vehicle: saline + alcohol 95 % of control | dose: 8.0 mg/kg/injection, schedule: Q01DX009 (ip), vehicle: saline + alcohol 101 % of control | dose: 16.0 mg/kg/injection, schedule: Q01DX009 (ip), vehicle: saline + alcohol 109 % of control | dose: 32.0 mg/kg/injection, schedule: Q01DX009 (ip), vehicle: saline + alcohol 95 % of control | dose: 64.0 mg/kg/injection, schedule: Q01DX009 (ip), vehicle: saline + alcohol 101 % of control

COc1ccc2c(=O)c(C)c(C)oc2c1CN1CCOCC1
inactive: dose: 0.39 mg/kg/injection, schedule: Q01DX009 (ip), vehicle: saline 104 % of control | [9] 114 % of control | [10] 108 % of control | [11] 98 % of control | [12] 115 % of control

O=C(CCl)NCC(=O)NC(Cc1ccccc1)C(=O)O (stereo unspecified) (ClAc-Gly-[ξF]-OH)
inactive: [7] 103 % of control | [8] 100 % of control | [14] 93 % of control

CN(C)CCCCNc1ccc(NCCCCN(C)C)c2c1C(=O)c1c(O)ccc(O)c1C2=O
inactive: [12] 95 % of control | [13] 93 % of control | [15] 90 % of control and 110 % of control

NC(CNC(=O)C(Cl)Cl)C(=O)O (stereo unspecified)
inactive: dose: 6.25 mg/kg/injection, schedule: Q01DX009 (ip), vehicle: water 93 % of control | dose: 12.5 mg/kg/injection, schedule: Q01DX009 (ip), vehicle: water 105 % of control | dose: 25.0 mg/kg/injection, schedule: Q01DX009 (ip), vehicle: water 100 % of control | dose: 50.0 mg/kg/injection, schedule: Q01DX009 (ip), vehicle: water 98 % of control | dose: 100.0 mg/kg/injection, schedule: Q01DX009 (ip), vehicle: water 89 % of control

COc1ccc(C(=O)Nc2ccccc2)cc1[N+](=O)[O-]
inactive: [4] 89 % of control | [16] 100 % of control | [17] 94 % of control

C/C(=N\O)C(=O)c1ccccc1
inactive: [4] 100 % of control | [16] 100 % of control | [17] 103 % of control

CCOc1ccccc1NC(=O)Nc1ccccc1
inactive: [4] 102 % of control | [16] 103 % of control | [17] 99 % of control

CC(=O)Nc1ccc(NC(=O)c2ccc([As](O)O)cc2)cc1
inactive: [1] 104 % of control | [2] 105 % of control | [3] 91 % of control | [4] 105 % of control

COC(=O)C1C(O)C(C)C(=O)C(C)/C=C\C=C(C)C(=O)Nc2c(C)c(OC(C)=O)c3c(c2O)C(=O)C(C)=C2OCOC(=C23)C(C)=CC(C)(O)C(O)C(C)C1O (stereo unspecified)
inactive: [4] 89 % of control | [16] 89 % of control

CCCCCCCCCCCCCCCC(=O)OCC1OC(n2ccc(N)nc2=O)C(O)C1O (stereo unspecified)
active: dose: 30.0 mg/kg/injection, schedule: Q01DX009 (ip), vehicle: saline with Tween-80 170 % of control | dose: 37.5 mg/kg/injection, schedule: Q01DX001 (ip), vehicle: saline 152 % of control | dose: 75.0 mg/kg/injection, schedule: Q01DX001 (ip), vehicle: saline 186 % of control
inactive: dose: 1.0 mg/kg/injection, schedule: Q01DX009 (ip), vehicle: saline with Tween-80 103 % of control | dose: 2.0 mg/kg/injection, schedule: Q01DX009 (ip), vehicle: saline with Tween-80 114 % of control | dose: 2.5 mg/kg/injection, schedule: Q01DX001 (ip), vehicle: saline with Tween-80 99 % of control | dose: 4.0 mg/kg/injection, schedule: Q01DX009 (ip), vehicle: saline with Tween-80 116 % of control | dose: 5.0 mg/kg/injection, schedule: Q01DX001 (ip), vehicle: saline with Tween-80 100 % of control | dose: 10.0 mg/kg/injection, schedule: Q01DX001 (ip), vehicle: saline with Tween-80 110 % of control | dose: 20.0 mg/kg/injection, schedule: Q01DX001 (ip), vehicle: saline with Tween-80 104 % of control | dose: 25.0 mg/kg/injection, schedule: Q04DX003 (ip), vehicle: saline with Tween-80 122 % of control

Oc1ccc(C2C=CCC2)cc1C1C=CCC1 (stereo unspecified)
inactive: [4] 99 % of control and 100 % of control | [16] 89 % of control and 96 % of control | [17] 100 % of control and 107 % of control

NC(N)=NC(N)=Nc1ccc(-c2ccc(N=C(N)N=C(N)N)cc2)cc1
inactive: [5] 102 % of control | [6] 96 % of control

Nc1ccn([C@@H](C=O)O[C@@H](C=O)CO)c(=O)n1
inactive: [12] 100 % of control and 112 % of control | [13] 101 % of control and 102 % of control | [15] 91 % of control and 109 % of control | dose: 50.0 mg/kg/injection, schedule: Q01DX009 (ip), vehicle: saline 99 % of control and 103 % of control | dose: 100.0 mg/kg/injection, schedule: Q01DX009 (ip), vehicle: saline 107 % of control and 112 % of control | dose: 200.0 mg/kg/injection, schedule: Q01DX009 (ip), vehicle: saline 113 % of control

CCOC(=O)c1ccc(NCC#N)cc1
inactive: [8] 94 % of control | [14] 97 % of control | dose: 400.0 mg/kg/injection, schedule: Q01DX009 (ip), vehicle: saline with Tween-80 105 % of control

Nc1ccc(N=Nc2ccccc2)c(N)c1
inactive: dose: 25.0 mg/kg/injection, schedule: Q01DX009 (ip), vehicle: saline with Tween-80 106 % of control | [7] 93 % of control and 101 % of control | [4] 101 % of control | [8] 95 % of control and 101 % of control | [16] 99 % of control | [14] 87 % of control and 90 % of control
